# Read-outs that look alike come from different tables or passages of the source.
# Columns and labels:
# DLD-1 BRCA2−/− cells = assay: Homologous recombination synthetic lethal inhibition of proliferation, DLD-1 BRCA2-/- (Cell Titre Glo 3D); assay type: cell-based; details: for IC50: Homo sapiens
# How it was run: (§1)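 Read-out: CellTiter-Glo 3D luminescence, day 7 for wt DLD-1, day 12 for BRCA2−/−, about 8-9 population doublings each. Seeding 1,500 or 3,000 cells/mL respectively. Dose range 10 μM–0.51 nM, 3-fold, 10 points, with re-dosing on day 6. IC50 from curve fit.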
# DLD-1 cells = assay: Inhibition of proliferation, DLD-1 BRCA2 wt control (Cell Titre Glo 3D); assay type: cell-based; details: for IC50: Homo sapiens
# How it was run: as §1
# [1] = DLD-1, first proliferation column (c5), DLD-1 BRCA2-/-, read-out: POLQ PD Prolif Lumin (converted)
# [2] = DLD-1, second proliferation column (c6), DLD-1 BRCA2 wt control, read-out: POLQ PD Prolif Lumin (converted)
# [3] = DLD-1, 288 h, DLD-1 BRCA2−/− cells, 12 days, read-out: POLQ PD Prolif Lumin BRCA2 −/− mean pIC50 (converted)
# [4] = DLD-1, 168 h, DLD-1 BRCA2 wt cells, 7 days, read-out: POLQ PD Prolif Lumin DLD1 mean pIC50 (converted)
# [5] = DLD-1, first proliferation column, DLD-1 BRCA2-/-, read-out: POLQ PD Prolif Lumin (converted)
# [6] = DLD-1, second proliferation column, DLD-1 BRCA2 wt control, read-out: POLQ PD Prolif Lumin (converted)
# [7] = DLD-1, DLD-1 BRCA2 −/−, mean, read-out: POLQ PD Prolif Lumin BRCA2 −/− mean pIC50 (converted)
# [8] = DLD-1, DLD1 BRCA2 wt, mean, read-out: POLQ PD Prolif Lumin DLD1 mean pIC50 (converted)
# [9] = DLD-1, proliferation, luminescence, taken as DLD-1 BRCA2-/-, read-out: POLQ PD Prolif Lumin (converted)
# [10] = DLD-1, proliferation, luminescence, second Prolif column (c6), taken as DLD-1 BRCA2 wt control, read-out: POLQ PD Prolif Lumin (converted)
# [11] = DLD-1, DLD-1 BRCA2 −/− cells, mean, read-out: POLQ PD Prolif Lumin BRCA2 −/− mean pIC50 (converted)
# [12] = DLD-1, DLD1 BRCA2 wt cells, mean, read-out: POLQ PD Prolif Lumin DLD1 mean PIC50 (converted)
smiles,measurement,setting,value
"Cc1ccnc(Cn2c(-c3ccc(O[C@@H]4CCNC4=O)cc3Cl)nc3c(OC4(C)CC4)ncnc32)c1 [Example T186, (R)-3-(3-chloro-4-(6-(1-methylcyclopropoxy)-9-((4-methylpyridin-2-yl)methyl)-9H-purin-8-yl)phenoxy)pyrrolidin-2-one]",IC50,DLD-1 BRCA2−/− cells; [1],251 nM
same,IC50,DLD-1 cells; [2],> 10000 nM
"Cc1cc(N2CCNCC2)ncc1-c1nc2c(OC3(C)CC3)ncnc2n1Cc1ccccc1 [Example C5, 9-benzyl-8-(4-methyl-6-(piperazin-1-yl)pyridin-3-yl)-6-(1-methylcyclopropoxy)-9H-purine]",IC50,DLD-1 BRCA2−/− cells; [3],316 nM
same,IC50,DLD-1 cells; [4],> 10000 nM
"CC1(Oc2ncnc3c2nc(-c2ccc(N4CC(N)C4)cc2Cl)n3Cc2ccccc2)CC1 [Example M1, 1-(4-(9-benzyl-6-(1-methylcyclopropoxy)-9H-purin-8-yl)-3-chlorophenyl)azetidin-3-amine]",IC50,DLD-1 BRCA2−/− cells; [3],501 nM
same,IC50,DLD-1 cells; [4],> 10000 nM
"Cc1ccnc(Cn2c(-c3ccc(OCCCN4CC[C@@H](O)C4)cc3Cl)nc3c(OC4(C)CC4)ncnc32)c1 [Example T592, (R)-1-(3-(3-chloro-4-(6-(1-methylcyclopropoxy)-9-((4-methylpyridin-2-yl)methyl)-9H-purin-8-yl)phenoxy)propyl)pyrrolidin-3-ol]",IC50,DLD-1 BRCA2−/− cells; [5],200 nM
same,IC50,DLD-1 cells; [6],> 10000 nM
"C[C@@H]1CN(CCOc2ccc(-c3nc4c(OC5(C)CC5)ncnc4n3Cc3ccccc3)c(Cl)c2)CCN1 [Example R6, (R)-9-benzyl-8-(2-chloro-4-(2-(3-methylpiperazin-1-yl)ethoxy)phenyl)-6-(1-methylcyclopropoxy)-9H-purine]",IC50,DLD-1 BRCA2−/− cells; [3],63.1 nM
same,IC50,DLD-1 cells; [4],3160 nM
"COc1ccc(F)cc1Cn1c(-c2cccc(O[C@H]3CC[C@H](C(=O)O)CC3)c2Cl)nc2c(OC3(C)CC3)ncnc21 [Example U69, (1r,4r)-4-(2-chloro-3-(9-(5-fluoro-2-methoxybenzyl)-6-(1-methylcyclopropoxy)-9H-purin-8-yl)phenoxy)cyclohexane-1-carboxylic acid]",POLQ PD Prolif Lumin BRCA2 −/− mean pIC50,"DLD-1 BRCA2−/− cells; DLD-1 BRCA2 −/−, mean",7.4
same,POLQ PD Prolif Lumin DLD1 mean pIC50,"DLD-1 cells; DLD1 BRCA2 wt, mean",<5.0
"COc1ccc(Cl)cc1Cn1c(-c2ccc(OCCOCC(=O)O)cc2Cl)nc2c(OC3(C)CC3)ncnc21 [Example U48, 2-(2-(3-chloro-4-(9-(5-chloro-2-methoxybenzyl)-6-(1-methylcyclopropoxy)-9H-purin-8-yl)phenoxy)ethoxy)acetic acid]",IC50,DLD-1 BRCA2−/− cells; [7],631 nM
same,IC50,DLD-1 cells; [8],> 10000 nM
"CC1(Oc2ncnc3c2nc(-c2ccc(OCCN4CCNCC4)cc2Cl)n3Cc2nccc(Cl)c2F)CC1 [Example T345, 9-((4-chloro-3-fluoropyridin-2-yl)methyl)-8-(2-chloro-4-(2-(piperazin-1-yl)ethoxy)phenyl)-6-(1-methylcyclopropoxy)-9H-purine]",IC50,"DLD-1 BRCA2−/− cells; DLD-1, first proliferation column (c5), taken as DLD-1 BRCA2-/-, read-out: POLQ PD Prolif Lumin (converted)",794 nM
same,IC50,"DLD-1 cells; DLD-1, second proliferation column (c6), taken as DLD-1 BRCA2 wt, read-out: POLQ PD Prolif Lumin (converted)",10000 nM
"CC1(Oc2ncnc3c2nc(-c2ccc(OCCCN4CC(O)C4)cc2Cl)n3Cc2cc(C(F)(F)F)ccn2)CC1 [Example T425, 1-(3-(3-chloro-4-(6-(1-methylcyclopropoxy)-9-((4-(trifluoromethyl)pyridin-2-yl)methyl)-9H-purin-8-yl)phenoxy)propyl)azetidin-3-ol]",IC50,DLD-1 BRCA2−/− cells; [9],501 nM
same,IC50,DLD-1 cells; [10],> 10000 nM
"COc1ccnc(Cn2c(-c3ccc(OCCN4CCNCC4)cc3Cl)nc3c(OC4(C)CC4)ncnc32)c1 [Example L5, 8-(2-chloro-4-(2-(piperazin-1-yl)ethoxy)phenyl)-9-((4-methoxypyridin-2-yl)methyl)-6-(1-methylcyclopropoxy)-9H-purine]",IC50,DLD-1 BRCA2−/− cells; [3],1580 nM
same,IC50,DLD-1 cells; [4],> 10000 nM
"CC1(Oc2ncnc3c2nc(-c2ccc(OCCc4nn[nH]n4)cc2Cl)n3Cc2cccc(Cl)c2)CC1 [Example T92, 8-(4-(2-(2H-tetrazol-5-yl)ethoxy)-2-chlorophenyl)-9-(3-chlorobenzyl)-6-(1-methylcyclopropoxy)-9H-purine]",IC50,DLD-1 BRCA2−/− cells; [11],2000 nM
same,IC50,DLD-1 cells; [12],> 10000 nM
"CC1(Oc2ncnc3c2nc(-c2ccc(OCCN4CCN[C@@H](CO)C4)cc2Cl)n3Cc2ccccc2)CC1 [Example R18, (R)-(4-(2-(4-(9-benzyl-6-(1-methylcyclopropoxy)-9H-purin-8-yl)-3-chlorophenoxy)ethyl)piperazin-2-yl)methanol]",IC50,DLD-1 BRCA2−/− cells; [3],126 nM
same,IC50,DLD-1 cells; [4],6310 nM
"Cc1cc(OCCN2CCN(C)CC2)ccc1-c1nc2c(OC3(C)CC3)ncnc2n1Cc1ccccc1 [Example C1, 9-benzyl-8-(2-methyl-4-(2-(4-methylpiperazin-1-yl)ethoxy)phenyl)-6-(1-methylcyclopropoxy)-9H-purine]",IC50,DLD-1 BRCA2−/− cells; [3],100 nM
same,IC50,DLD-1 cells; [4],5010 nM
"CN1CCCC(Oc2ccc(-c3nc4c(OC5(C)CC5)ncnc4n3Cc3ccccc3)c(Cl)c2)CC1 (single isomer, unassigned) [Example D14, 9-benzyl-8-(2-chloro-4-((1-methylazepan-4-yl)oxy)phenyl)-6-(1-methylcyclopropoxy)-9H-purine]",POLQ PD Prolif Lumin BRCA2 −/− mean pIC50,"DLD-1 BRCA2−/− cells; DLD-1 BRCA2−/− cells, 12 days",7.0
same,POLQ PD Prolif Lumin DLD1 mean pIC50,"DLD-1 cells; DLD-1 BRCA2 wt cells, 7 days",5.4
"CC(CCOc1ccc(-c2nc3c(OC4(C)CC4)ncnc3n2Cc2cc(Cl)ccc2C#N)c(Cl)c1)C(=O)O (racemic) [Example U9, 4-(3-chloro-4-(9-(5-chloro-2-cyanobenzyl)-6-(1-methylcyclopropoxy)-9H-purin-8-yl)phenoxy)-2-methylbutanoic acid]",IC50,DLD-1 BRCA2−/− cells; [7],79.4 nM
same,IC50,DLD-1 cells; [8],> 10000 nM
"CC1(Oc2ncnc3c2nc(-c2ccc(OCCN4CC(O)C4)cc2Cl)n3Cc2cc(C(F)(F)F)ccn2)CC1 [Example T284, 1-(2-(3-chloro-4-(6-(1-methylcyclopropoxy)-9-((4-(trifluoromethyl)pyridin-2-yl)methyl)-9H-purin-8-yl)phenoxy)ethyl)azetidin-3-ol]",IC50,"DLD-1 BRCA2−/− cells; DLD-1, DLD-1 BRCA2-/- proliferation, column head only partly shown, read-out: POLQ PD Prolif Lumin (converted)",501 nM
same,IC50,"DLD-1 cells; DLD-1, DLD-1 BRCA2 wt control proliferation, column head only partly shown, read-out: POLQ PD Prolif Lumin (converted)",> 10000 nM
"CC(=O)Nc1ccc(-c2nc3c(OC4(C)CC4)ncnc3n2Cc2cc(C)ccn2)c(Cl)c1 [Example T53, N-(3-chloro-4-(6-(1-methylcyclopropoxy)-9-((4-methylpyridin-2-yl)methyl)-9H-purin-8-yl)phenyl)acetamide]",IC50,DLD-1 BRCA2−/− cells; [11],316 nM
same,IC50,DLD-1 cells; [12],> 10000 nM
"Cc1cc(C)nc(Cn2c(-c3ccc(OCCN4CCNCC4)cc3Cl)nc3c(OC4(C)CC4)ncnc32)c1 [Example T595, 8-(2-chloro-4-(2-(piperazin-1-yl)ethoxy)phenyl)-9-((4,6-dimethylpyridin-2-yl)methyl)-6-(1-methylcyclopropoxy)-9H-purine]",IC50,DLD-1 BRCA2−/− cells; [5],1260 nM
same,IC50,DLD-1 cells; [6],> 10000 nM
"Cc1ccnc(Cn2c(-c3ccc(OCCCN4CC(O)C4)cc3Cl)nc3c(OC4(C)CC4)ncnc32)c1 [Example T513, 1-(3-(3-chloro-4-(6-(1-methylcyclopropoxy)-9-((4-methylpyridin-2-yl)methyl)-9H-purin-8-yl)phenoxy)propyl)azetidin-3-ol]",IC50,DLD-1 BRCA2−/− cells; [1],316 nM
same,IC50,DLD-1 cells; [2],> 10000 nM
"Cc1cc(N2CCC(N(C)C)CC2)ncc1-c1nc2c(OC3(C)CC3)ncnc2n1Cc1ccccc1 [Example F3, 1-(5-(9-benzyl-6-(1-methylcyclopropoxy)-9H-purin-8-yl)-4-methylpyridin-2-yl)-N,N-dimethylpiperidin-4-amine]",IC50,DLD-1 BRCA2−/− cells; [3],251 nM
same,IC50,DLD-1 cells; [4],> 10000 nM
"CN(C)C(=O)c1ccc(-c2nc3c(OC4(C)CC4)ncnc3n2Cc2ccccc2)c(Cl)c1 [Example N1, 4-(9-benzyl-6-(1-methylcyclopropoxy)-9H-purin-8-yl)-3-chloro-N,N-dimethylbenzamide]",IC50,DLD-1 BRCA2−/− cells; [3],200 nM
same,IC50,DLD-1 cells; [4],> 10000 nM
"COc1ccc(Cl)cc1Cn1c(-c2cccc(O[C@H]3CC[C@H](C(=O)O)CC3)c2Cl)nc2c(OC3(C)CC3)ncnc21 [Example U38, (1r,4r)-4-(2-chloro-3-(9-(5-chloro-2-methoxybenzyl)-6-(1-methylcyclopropoxy)-9H-purin-8-yl)phenoxy)cyclohexane-1-carboxylic acid]",POLQ PD Prolif Lumin BRCA2 −/− mean pIC50,"DLD-1 BRCA2−/− cells; DLD-1 BRCA2 −/−, mean",7.5
same,POLQ PD Prolif Lumin DLD1 mean pIC50,"DLD-1 cells; DLD1 BRCA2 wt, mean",5.1
"Cc1ccnc(Cn2c(-c3ccc(C(=O)N4CC5(CNC5)C4)cc3Cl)nc3c(OC4(C)CC4)ncnc32)c1 [Example T428, (3-chloro-4-(6-(1-methylcyclopropoxy)-9-((4-methylpyridin-2-yl)methyl)-9H-purin-8-yl)phenyl)(2,6-diazaspiro[3.3]heptan-2-yl)methanone]",IC50,DLD-1 BRCA2−/− cells; [9],> 10000 nM
same,IC50,DLD-1 cells; [10],> 10000 nM

# — patent publication US20250195530A1, “POLQ INHIBITORS” (ASTRAZENECA AB, priority 2022, published 2025)
